Ten compounds from US9242937B2, “Pharmaceutically active disubstituted pyridine derivatives” (Bayer Intellectual Property GmbH, priority 2011, dated 2016) can be followed below.

Experiment [1] deals with LPS-induced TNF alpha release in PBMCs. The experiment can be described thus: TNF alpha release assay (LPS-stimulated PBMCs). Format: cell-based. The following applies: Homo sapiens, PBMC, 1 μg/mL LPS, 6 h, read-out: TNF alpha release (activity range), IC50. How it is done: Freshly isolated peripheral blood mononuclear cells (PBMCs) were seeded in 96-well cell culture plates with 200,000 cells in 100 μl cell culture medium (DMEM cell culture medium+glutamine from PAN Biotech GmbH, Aidenbach, Germany) supplemented with 10% fetal calf serum (PAA Laboratories GmbH, Pasching, Austria) per well and incubated overnight at 37° C., 5% CO2. To each well, 100 μL cell culture medium with 2× concentrated test compounds diluted from 10 mM DMSO stocks, or 100 μL DMEM with 0.4% DMSO for control wells, was added. The compounds of general formula (I) summarized in Table 6 were used in this assay. After incubation for 1 h at 37° C., 5% CO2, cells were stimulated with 1 μg/mL LPS (Lipopolysaccharides, Sigma, catalog #L4391-1 MG; 1 mg/ml stock solution), or left untreated for negative controls, and plates were incubated for 6 h at 37° C./5% CO2. The cell culture plates were centrifuged at 2000 rpm for 5 minutes, and supernatants were transferred to fresh 96-well polypropylene plates. 25 μL of supernatants were transferred into 96-well-plates of the human TNF alpha-tissue culture kit (Meso Scale Discovery, Gaithersburg, Md., USA), and manufacturer's instructions were followed for analysis of TNF alpha levels. Chemoluminescence was measured in the Mesoscale Sector Imager, and IC50 values were calculated with the software Excel Fit (IDBS, Guildford, UK) from 2-fold dilution series comprising at least 6 concentrations in duplicates.

For another experiment, the system named is MDAMB468 cells. The experiment is described as follows: Cell viability assay, MDAMB468 cells. Format: cell-based. The following applies: Homo sapiens, MDA-MB-468; 72 h, Cell Titer Glo; read-out: Cell Viability - MDAMB468 cells (activity range), IC50. How it is done: Hela- or MDAMB468-Cells were maintained in RPMI 1640 or McCoy's 5A cell culture medium+glutamine (PAN Biotech GmbH, Aidenbach, Germany; order no. P04-22100; P04-05500) supplemented with 10% fetal calf serum “Gold” (PAA Laboratories GmbH, Pasching, Austria; order no. A15-151) and grown at 37° C., 5% CO2. For the cell viability assay, cells were seeded with a density of 400 (Hela cells, DSMZ Braunschweig order no. ACC57) or 800 (MDAMB468 cells, ATCC order no. HTB-132) per well in 25 μL in 384-well plates (Greiner Bio-One, Frickenhausen, Germany; order no. 781080). After overnight incubation at 37° C./5% CO2, 25 nL or 75 nL compound were added to each sample well by using BIOMEK FXP Laboratory Automation Workstation (Beckman Coulter, USA). Wells with cells and 0.1% or 0.3% DMSO in culture medium were used as positive controls, wells with cells and 10 μM staurosporine in culture medium were used as negative controls. The cells were incubated with the compounds for 72 h at 37° C./5% CO2. For measurement of cell viability 25 μL Cell Titer Glo reagent (Promega, Madison, USA; order no. G7573), 1:2 diluted with cell culture medium, was added to each well. The 384 well-plates were placed for 2 min on a orbital microplate shaker and incubated for further 10 min at room temperature to stabilize the luminescence signal. Luminescence was measured by Envision Plate Reader (Perkin Elmer, USA). IC50 values were calculated with the software Excel Fit (IDBS, Guildford, UK) from 3-fold dilution series comprising at least 8 concentrations in duplicates.
Background: ATP-based viability assays read luminescence as a measure of living cells.

Another experiment concerns the target T1, CDK9/Cyclin T1 (Homo sapiens, UniProt P50750).
T1 construct: purchased Invitrogen
The experiment can be described thus: LanthaScreen Eu Kinase Binding Assay, CDK9/Cyclin T1. To be noted: tracer 236, read-out: CDK9/Cyclin T1 (activity range), Kd. The protocol:
This protocol describes how the LanthaScreen Eu Kinase Binding Assay was performed to determine dissociation constants (Kd) of compounds of general formula (I) and CDK/Cyclin complexes. The principle behind this assay is based upon the binding and displacement of an Alexa Fluor 647-labeled tracer, which binds to the active site of kinases. Binding of the tracer to the kinase is detected using a Eu-labeled antibody. Simultaneous binding of both the tracer and antibody to the kinase gives rise to a FRET-signal. Binding of an inhibitor to the kinase competes for binding with the tracer, resulting in a loss of FRET.
The compounds of general formula (I) summarized in Table 1 were diluted from a 10 mM DMSO stock solution 1:10 in a total volume of 15 μL DMSO. This compound predilution was then serial diluted 1:3 over 8 steps in DMSO and briefly spun down. Each compound solution was now diluted 1:33.33 in kinase buffer (HEPES: 20 mM, pH: 8.0; MgCl2: 10 mM; DTT: 1 mM; Brij-35: 0.01%), mixed thoroughly and spun down. For every sample, 5 μL of the diluted compound were mixed with 5 μL tracer working solution (e.g. 60 nM tracer 236 in kinase buffer for CDK2/Cyclin A) and 5 μL CDK/Cyclin/Anti-GST-AB-working solution (e.g. 15 nM CDK2/Cyclin A, 1:250 dilution of Anti-GST-AB in kinase buffer) in a well of a small volume 384 well plate (Corning Incorporated, Corning, N.Y., USA; order no. 3673). The tracer concentration was adjusted to its dissociation constant (Kd) for the CDK/Cyclin, which was 30 nM for CDK2/Cyclin A, CDK7/Cyclin H and CDK9/Cyclin T1, 20 nM for CDK8/Cyclin C, and 35 nM for CDK9/Cyclin K. For negative controls, in each well 5 μL of DMSO working solution (3% DMSO diluted in kinase buffer) was mixed with 5 μL Anti-GST-AB working solution (e.g. 1:250 dilution of Anti-GST-AB in kinase buffer for CDK2/Cyclin A) and 5 μL Tracer working solution (e.g. 60 nM Tracer 236 in kinase buffer for CDK2/Cyclin A). For positive controls, in each well 5 μL of DMSO working solution (3% DMSO diluted in kinase buffer) was mixed with 5 μL CDK/Cyclin/Anti-GST-AB-working solution: (e.g. 15 nM CDK2/Cyclin A, 1:250 dilution of Anti-GST-AB in kinase buffer) and 5 μL Tracer working solution (e.g. 60 nM Tracer 236 in kinase buffer for CDK2/Cyclin A). Positive and negative controls were calculated from at least 8 different sample wells. The 384 well plates were mixed in a Teleshaker plate mixer (Beckman Coulter, Brea, Calif., USA) at 2000 rpm for 40 sec, and incubated for 1 h at room temperature before reading. The FRET signal was measured at 340 nm excitation, 665 nm and 615 nm emission (for the kinase tracer and LanthaScreen Eu-AB, respectively) with an Envision spectrophotometer (Perkin Elmer, Waltham, Mass., USA) with 50 μs delay and 300 μs integration time. Kd values were determined from the sigmoidal dose response curves with the software Quattro Workflow (Quattro GmbH, Munich, Germany).
A general note: TR-FRET usually uses a lanthanide donor and a delayed reading to cut background.

A value given as a limit tells only on which side of the number the result lay.

T1 sequence (P50750 whole entry): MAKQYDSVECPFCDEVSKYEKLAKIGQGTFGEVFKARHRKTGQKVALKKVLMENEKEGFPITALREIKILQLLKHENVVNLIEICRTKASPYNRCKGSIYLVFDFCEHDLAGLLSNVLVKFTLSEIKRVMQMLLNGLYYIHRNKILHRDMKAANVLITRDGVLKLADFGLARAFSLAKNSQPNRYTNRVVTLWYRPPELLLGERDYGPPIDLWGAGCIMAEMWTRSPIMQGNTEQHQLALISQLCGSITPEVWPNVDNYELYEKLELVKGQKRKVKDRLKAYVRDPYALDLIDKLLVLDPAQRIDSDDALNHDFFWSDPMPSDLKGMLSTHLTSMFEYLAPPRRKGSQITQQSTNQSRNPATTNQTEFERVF
T1 sequence (O60563 whole entry partner): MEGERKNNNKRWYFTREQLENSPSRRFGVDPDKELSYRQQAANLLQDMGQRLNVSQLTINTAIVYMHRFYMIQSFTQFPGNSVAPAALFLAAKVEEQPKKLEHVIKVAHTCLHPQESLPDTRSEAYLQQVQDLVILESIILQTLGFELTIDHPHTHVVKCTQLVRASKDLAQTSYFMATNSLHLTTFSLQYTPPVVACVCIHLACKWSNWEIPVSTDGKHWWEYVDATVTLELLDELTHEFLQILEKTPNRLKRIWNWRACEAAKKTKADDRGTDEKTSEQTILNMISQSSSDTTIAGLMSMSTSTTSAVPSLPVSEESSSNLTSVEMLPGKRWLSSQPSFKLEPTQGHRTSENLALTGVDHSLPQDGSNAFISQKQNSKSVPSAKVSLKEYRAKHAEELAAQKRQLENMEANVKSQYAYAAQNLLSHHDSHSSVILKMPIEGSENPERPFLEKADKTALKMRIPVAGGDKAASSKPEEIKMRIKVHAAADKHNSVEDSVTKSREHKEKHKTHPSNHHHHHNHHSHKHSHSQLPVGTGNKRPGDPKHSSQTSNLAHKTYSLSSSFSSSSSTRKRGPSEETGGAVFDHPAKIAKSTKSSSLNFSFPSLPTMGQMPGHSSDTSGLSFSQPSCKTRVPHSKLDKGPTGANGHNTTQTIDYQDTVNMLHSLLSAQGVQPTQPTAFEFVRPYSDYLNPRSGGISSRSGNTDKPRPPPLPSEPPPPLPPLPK

As a reminder, the IC50 is the concentration that gives 50% inhibition. In the case of `COc1ccccc1-c1ccnc(Nc2ccccc2)c1` [Compound B1, 4-(2-Methoxyphenyl)-N-phenylpyridin-2-amine], the IC50 in experiment [1] was greater than 10000 nM; in the experiment on MDAMB468 cells, greater than 10 µM. Moreover, the Kd at CDK9/Cyclin T1 is 1000 to 10000 nM.

On to `COc1ccccc1-c1ccnc(Nc2cccc([N+](=O)[O-])c2)c1` [Compound C1, 4-(2-Methoxyphenyl)-N-(3-nitrophenyl)pyridin-2-amine], for which the results for the IC50 (in experiment [1]; in the experiment with MDAMB468 cells) were 1000 to 10000 nM and greater than 10 µM, respectively. Also, the Kd on CDK9/Cyclin T1 is 100 to 1000 nM.

In the case of `COc1ccccc1-c1ccnc(Nc2cccc(S(N)(=O)=O)c2)c1` [Compound D1, 3-[(4-(2-Methoxyphenyl)pyridin-2-yl)amino]benzenesulfonamide], the IC50 in experiment [1] lay within 100 to 1000 nM; in the experiment with MDAMB468 cells, 0.1 to 1 µM. At CDK9/Cyclin T1, the Kd is less than 100 nM.

Take `COc1ccccc1-c1ccnc(Nc2ccc(S(N)(=O)=O)cc2)c1` [Compound E1, 4-[(4-(2-Methoxyphenyl)pyridin-2-yl)amino]benzenesulfonamide]: the IC50 in experiment [1] lay in the range of 1000 to 10000 nM; in the experiment on MDAMB468 cells, 1 to 10 µM. Moreover, on CDK9/Cyclin T1, the Kd fell in the range of 100 to 1000 nM.

On to `COc1ccccc1-c1ccnc(Nc2cccc(S(C)(=O)=O)c2)c1` [Compound F1, 4-(2-Methoxyphenyl)-N-(3-(methylsulfonyl)phenyl)pyridin-2-amine], for which the IC50 lay within 1000 to 10000 nM in experiment [1] and 1 to 10 µM in the experiment with MDAMB468 cells. Also, on CDK9/Cyclin T1, the Kd was less than 100 nM.

With `COc1cc(F)ccc1-c1ccnc(Nc2cccc(CS(N)(=O)=O)c2)c1` [Compound G1, [3-((4-(4-Fluoro-2-methoxyphenyl)pyridin-2-yl)amino)phenyl]-methanesulfonamide], the IC50 in experiment [1] lay within 100 to 1000 nM; in the experiment on MDAMB468 cells, 1 to 10 µM. The Kd on CDK9/Cyclin T1 is less than 100 nM.

With `COc1cc(F)ccc1-c1ccnc(Nc2cccc(CS(=O)(=O)N(C)C)c2)c1` [Compound G3, 1-[3-((4-(4-Fluoro-2-methoxyphenyl)pyridin-2-yl)amino)phenyl]-N,N-dimethylmethanesulfonamide], the IC50 in the experiment on MDAMB468 cells was 1 to 10 µM. The Kd at CDK9/Cyclin T1 was less than 100 nM.

As to `COc1cc(F)ccc1-c1ccnc(Nc2cccc(NS(C)(=O)=O)c2)c1` [Compound J1, N-[3-((4-(4-Fluoro-2-methoxyphenyl)pyridin-2-yl)amino)phenyl]-methanesulfonamide], the IC50 in the experiment on MDAMB468 cells lay in the range of 1 to 10 µM. Besides, the Kd on CDK9/Cyclin T1 was less than 100 nM.

On to `COc1cc(F)ccc1-c1ccnc(Nc2cccc(NC(C)=O)c2)c1` [Compound J2, N-[3-((4-(4-Fluoro-2-methoxyphenyl)pyridin-2-yl)amino)phenyl]-acetamide], for which, in the experiment with MDAMB468 cells, the concentration for half-maximal inhibition (IC50) was in the range of 1 to 10 µM. The Kd on CDK9/Cyclin T1 is less than 100 nM.

On to `CCCNS(=O)(=O)Cc1cccc(Nc2cc(-c3ccc(F)cc3OC)ccn2)c1` [Compound K1, 1-[3-((4-(4-Fluoro-2-methoxyphenyl)pyridin-2-yl)amino)phenyl]-N-propylmethanesulfonamide], for which the IC50 in the experiment on MDAMB468 cells was greater than 10 µM. For the same compound, on CDK9/Cyclin T1, the Kd was less than 100 nM.
